Experimental data as given in PubChem BioAssay AID1918947 (Molecular Pharmacology Branch, DTP, NCI, 2023).
Where “and” joins values, the source holds several entries; their conditions need not be identical. Equal entries are not always repeated.

System: A498 complex spheroid viability
Assay: Anticancer human tumor A498 cell line growth inhibition;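 also: spheroids exposed to agents for seven days before readout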;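 as to viability, T/C: 100% = DMSO vehicle-treated spheroids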
Conditions: for viability, T/C: stronger effect = lower value
Method in brief: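 Multicellular complex spheroids of tumor cells with human endothelial cells (HUVEC) and mesenchymal stem cells; the LSD1 inhibitor iadademstat was combined with standard-of-care or investigational agents. Top concentration at or near clinical Cmax, half-log dilutions; final DMSO ≤0.25%.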

[1] = curve of first compound, second compound 0.1 µM
[2] = curve of first compound, second compound 0.316 µM
[3] = curve of first compound, second compound 1 µM
[4] = curve of first compound, second compound 3.16 µM
[5] = curve of first compound, second compound 10 µM

`Nc1ccn(C2OC(CO)C(O)C2(F)F)c(=O)n1` (configuration not stated) + NC1CC1c1ccc(-c2cccc(O)c2)cc1 was tested, and the IC50 [1] was less than 0.000949 µM, the IC50 [2] was less than 0.000949 µM and the IC50 [3] was less than 0.000949 µM. The IC50 [4] was less than 0.000949 µM, the IC50 [5] was less than 0.000949 µM and the viability, T/C (second compound 0.1 µM, first compound 0.000949 µM) was 20.6%. For the same compound, the viability, T/C (second compound 0.1 µM, first compound 0.003 µM) was 28.4%, the viability, T/C (second compound 0.1 µM, first compound 0.00949 µM) was 98.4% and the viability, T/C (second compound 0.1 µM, first compound 0.03 µM) was 36.4%. The viability, T/C (second compound 0.1 µM, first compound 0.0949 µM) was 35.8%, the viability, T/C (second compound 0.1 µM, first compound 0.3 µM) was 31.5% and the viability, T/C (second compound 0.316 µM, first compound 0.000949 µM) was 22.6%. The viability, T/C (second compound 0.316 µM, first compound 0.003 µM) was 28.6%, the viability, T/C (second compound 0.316 µM, first compound 0.00949 µM) was 112% and the viability, T/C (second compound 0.316 µM, first compound 0.03 µM) was 33.9%. The viability, T/C (second compound 0.316 µM, first compound 0.0949 µM) was 35.3%, the viability, T/C (second compound 0.316 µM, first compound 0.3 µM) was 32.3% and the viability, T/C (second compound 1 µM, first compound 0.000949 µM) was 22.5%. The viability, T/C (second compound 1 µM, first compound 0.003 µM) was 26.8%, the viability, T/C (second compound 1 µM, first compound 0.00949 µM) was 105% and the viability, T/C (second compound 1 µM, first compound 0.03 µM) was 35.5%. The viability, T/C (second compound 1 µM, first compound 0.0949 µM) was 29.3%, the viability, T/C (second compound 1 µM, first compound 0.3 µM) was 30.6% and the viability, T/C (second compound 3.16 µM, first compound 0.000949 µM) was 22.6%. For the same compound, the viability, T/C (second compound 3.16 µM, first compound 0.003 µM) was 28.3%, the viability, T/C (second compound 3.16 µM, first compound 0.00949 µM) was 94.6% and the viability, T/C (second compound 3.16 µM, first compound 0.03 µM) was 36.1%. It also gave a viability, T/C (second compound 3.16 µM, first compound 0.0949 µM) of 30.3%, a viability, T/C (second compound 3.16 µM, first compound 0.3 µM) of 28.1% and a viability, T/C (second compound 10 µM, first compound 0.000949 µM) of 23.5%. For the same compound, the viability, T/C (second compound 10 µM, first compound 0.003 µM) was 28.2%, the viability, T/C (second compound 10 µM, first compound 0.00949 µM) was 93.5% and the viability, T/C (second compound 10 µM, first compound 0.03 µM) was 40.7%. The viability, T/C (second compound 10 µM, first compound 0.0949 µM) was 32.9% and the viability, T/C (second compound 10 µM, first compound 0.3 µM) was 29.4%.

Compound `CC1(C)CCC(CN2CCN(c3ccc(C(=O)NS(=O)(=O)c4ccc(NCC5CCOCC5)c([N+](=O)[O-])c4)c(Oc4cnc5[nH]ccc5c4)c3)CC2)=C(c2ccc(Cl)cc2)C1` + NC1CCC(NC2CC2c2ccccc2)CC1 has an IC50 [1] of 3.67 µM, an IC50 [2] of 3.89 µM and an IC50 [3] of 3.47 µM. For the same compound, the IC50 [4] was 2.71 µM, the IC50 [5] was 1.97 µM and the viability, T/C (second compound 0.1 µM, first compound 0.0316 µM) was 87.7%. For the same compound, the viability, T/C (second compound 0.1 µM, first compound 0.1 µM) was 89.2%, the viability, T/C (second compound 0.1 µM, first compound 0.316 µM) was 85.5% and the viability, T/C (second compound 0.1 µM, first compound 1 µM) was 76.4%. For the same compound, the viability, T/C (second compound 0.1 µM, first compound 3.16 µM) was 57.5%, the viability, T/C (second compound 0.1 µM, first compound 10 µM) was 3.91% and the viability, T/C (second compound 0.316 µM, first compound 0.0316 µM) was 87.2%. For the same compound, the viability, T/C (second compound 0.316 µM, first compound 0.1 µM) was 92.6%, the viability, T/C (second compound 0.316 µM, first compound 0.316 µM) was 91.3% and the viability, T/C (second compound 0.316 µM, first compound 1 µM) was 79.1%. For the same compound, the viability, T/C (second compound 0.316 µM, first compound 3.16 µM) was 60.7%, the viability, T/C (second compound 0.316 µM, first compound 10 µM) was 4.52% and the viability, T/C (second compound 1 µM, first compound 0.0316 µM) was 84.5%. For the same compound, the viability, T/C (second compound 1 µM, first compound 0.1 µM) was 86.2%, the viability, T/C (second compound 1 µM, first compound 0.316 µM) was 85.1% and the viability, T/C (second compound 1 µM, first compound 1 µM) was 76.9%. The viability, T/C (second compound 1 µM, first compound 3.16 µM) was 54.3%, the viability, T/C (second compound 1 µM, first compound 10 µM) was 3.45% and the viability, T/C (second compound 3.16 µM, first compound 0.0316 µM) was 82.5%. For the same compound, the viability, T/C (second compound 3.16 µM, first compound 0.1 µM) was 85.5%, the viability, T/C (second compound 3.16 µM, first compound 0.316 µM) was 80% and the viability, T/C (second compound 3.16 µM, first compound 1 µM) was 70.2%. For the same compound, the viability, T/C (second compound 3.16 µM, first compound 3.16 µM) was 47%, the viability, T/C (second compound 3.16 µM, first compound 10 µM) was 3.58% and the viability, T/C (second compound 10 µM, first compound 0.0316 µM) was 81.1%. For the same compound, the viability, T/C (second compound 10 µM, first compound 0.1 µM) was 75.2%, the viability, T/C (second compound 10 µM, first compound 0.316 µM) was 76.5% and the viability, T/C (second compound 10 µM, first compound 1 µM) was 65.2%. It also gave a viability, T/C (second compound 10 µM, first compound 3.16 µM) of 39.2% and a viability, T/C (second compound 10 µM, first compound 10 µM) of 2.98%.

In the case of `COc1ccc([C@@H](O)c2cc(-c3ncnc4cc(N5CCOCC5)ccc34)c(F)cc2Cl)nn1`, the viability, T/C (compound 0.0316 µM) is reported as 84.8% and 74.3%, the viability, T/C (compound 0.1 µM) is reported as 62.5% and 53.8% and the viability, T/C (compound 0.316 µM) is reported as 33.1% and 28.8%. The viability, T/C (compound 1 µM) was 19.1% and 18.4%, the viability, T/C (compound 3.16 µM) was 10.7% and 9.71% and the viability, T/C (compound 10 µM) was 6.93% and 6.16%. For the same compound, the IC50 (curve of compound) was 0.164 µM and 0.115 µM.
